Key:
[1] = type: physicochemical; conditions: At 90% RH, 25°C
Description: Said crystal Form I according to the invention (samples obtained according to the process of scheme 1) was characterized by several physical methods such as X-ray Powder Diffraction, Differential Scanning Calorimetry, Thenno-Gravimetric Analysis, Water-Activity isotherm measurement, as shown below. X-Ray Powder Diffraction (XRPD): XRPD experiments are carried out on a Braker AXS D8 powder diffractometer using the Bragg-Brentano parafocusing geometry. A thin layer of the product is deposited on a single-crystal silicon wafer, cut out according to Si (510) crystallographic orientation that, by systematic extinction, impedes any Bragg reflection. […] Diagrams are recorded in the following conditions: a 1.5 to 40.0° scan in angle 20, 10 and 100 seconds counting time per degree in 20, according to the amount of powder to be analyzed, and ambient conditions of pressure, temperature and relative humidity. […] Between 1.5 and 5 mg of the product to be analyzed is placed in a semi-open aluminum sample pan. An endo thermic peak is recorded (onset around 104°C). […] A controlled relative humidity is generated by mixing different proportions of dry and water saturated carrier gas streams (monitored by mass flow conti llers). […] From the complete moisture sorption and desorption profile an isotherm is calculated using the DVS Advanced Analysis Suite v3.6. […]

[2] = Dynamic vapor sorption (DVS), SPS11-10µ, one cycle at 25 °C; type: physicochemical; conditions: DVS isotherm at 25 °C
Description: (§1) Example 7: Dynamic vapor sorption (DVS) of (R)-3-[6-amino-pyridin-3-yl]-2-(1-cyclohexyl-1 H-imidazol-4-yl)-propionic acid sodium salt monohydrate: Moisture sorption/desorption isotherms were recorded on a SPS11-10µ from Projekt Messtechnik (Ulm, Germany). One cycle was run at 25 °C, in which the sample was first stepwise decreased to 0% RH and then the relative humidity was stepwise increased from 0 to 95% and the weight of the sample was measured. Typical total measurement times for both cycles were about 20 to 30 hours. The measured data for the (R)-3-[6-amino-pyridin-3-yl]-2-(1-cyclohexyl-1 H-imidazol-4-yl)-propionic acid sodium salt monohydrate as prepared in Examples 2 or 3 are shown in the following table: DVS Isotherm at 25 °C:
(§2) Example 12: DVS, Comparison Experiment: (R)-3-[6-amino-pyridin-3-yl]-2-(1-cyclohexyl-1 H-imidazol-4-yl)-propionic acid as prepared in Example 1 was used for the measurement. The measurement was performed as disclosed in Example 7 with (R)-3-[6-amino-pyridin-3-yl]-2-(1-cyclohexyl-1 H-imidazol-4-yl)-propionic acid (free acid, amorphous) and the received data are shown in the following table: DVS Isotherm at 25 °C
as §1, with “(DVS):” for “(DVS) of (R)-3-[6-amino-pyridin-3-yl]-2-(1-cyclohexyl-1 H-imidazol-4-yl)-propionic acid sodium salt monohydrate:”, “Room humidity (RH)” for “RH”, “dihydrate” for “monohydrate”, “Example” for “Examples 2 or”, “isotherm” for “Isotherm”, “25°C:” for “25 °C:”
as §2, with “9:” for “12:”

[3] = Chiral stability on storage as a solid at 40 °C and 75 % RH (chiral HPLC); type: physicochemical
Description: Example 8: Chiral stability: Representative samples of the crystalline sodium salt of (R)-3-[6-amino-pyridin-3-yl]-2-(1-cyclohexyl-1 H-imidazol-4-yl)-propionic acid sodium salt dihydrate as prepared in Example 3 were stored as a solid under the conditions (A) and (B): (A) 40 °C and 75 % RH 2 weeks; (B) 40 °C and 75 % RH 4 weeks: Results are shown in the following table:
Under the storage conditions the samples remain stable. […] The purity was determined by chiral HPLC on a HPLC system containing a Quaternary HPLC pump (e.g. HP 1100), an auto sampler, an UV absorbance detector (e.g. DAD Agilent Technologies or other adequate HPLC-System) and a computer data acquisition system with suitable software (e.g. Dionex-Chromeleon). A Zorbax SB_CN (4.6 x 100 mm, 3.5 µlτ ? ), column was used as stationary phase and two mobile phases A (975 mL water, 25 mL methanol, 1 mL perchloric acid) and B (975 mL methanol, 25 mL water) were used as mobile phases. The flow rate was set to a value of 1.0 mL/minute and the oven temperature was set to 15°C. Detection was performed by absorbance of the compounds at 236 nm (UV) (bandwidth: 4 nm) and reference wavelength was set to 450 nm (bandwidth: 50 nm). Typical total run times were in the range of about 10 minutes. For sample preparation 20 mg of the substance were accurately weighed into a 10 ml volumetric flask and dissolved and diluted to volume with solvent (acetonitrile/water 90:10 VN). Afterwards 1 ml of this solution was transferred to a 10 mL volumetric flask and then diluted to volume with water. For the HPLC analysis 5 µl of the sample were injected into the system. Gradient used: 0 min (time elapsed) 0% mobile phase B, 1 min 0% mobile phase B, 4 min 53% mobile phase B, 6 min 95% mobile phase B, 7 min 95% mobile phase B, 7.5 min 0% mobile phase B and after 10 min 0% mobile phase B. Enanatiomeric excess was determined by chiral HPLC on a HPLC system containing a Quaternary HPLC pump (e.g. HP 1100), an auto sampler, an UV absorbance detector (e.g. DAD Agilent Technologies or other adequate HPLC-System) and a computer data acquisition system with suitable software (e.g. Dionex-Chromeleon). A Chirobiotic R, Supelco (Astec) (4.6 x 250mm; 5µηη) column was used as stationary phase and a solution of 800 mL water, 1200 mL acetonitrile and 1.0 g ammoniumacetate was used as mobile phase. The flow rate was set to a value of 1.5 mL/minute and the oven temperature was set to 45°C. Detection was performed by absorbance of the compounds at 236 nm (UV) (bandwidth: 8 nm) and reference wavelength was set to 450 nm (bandwidth: 50 nm). Typical total run times were in the range of about 15 minutes. For sample preparation 50 mg of the substance were accurately weighed into a 10 mL volumetric flask and dissolved and diluted to volume with solvent (acetonitrile/water 50:50). For the HPLC analysis 5 µí of the sample were injected into the system. Gradient used: Isograt (15 minutes 100% mobile phase A).
Example 10: Chiral stability; Comparison Experiment: (R)-3-[6-amino-pyridin-3-yl]-2-(1-cyclohexyl-1 H-imidazol-4-yl)-propionic acid as prepared in Example 1 was used for the measurement. Representative samples of the compound (R)-3-[6-amino-pyridin-3-yl]-2-(1-cyclohexyl-1 H-imidazol-4-yl)-propionic acid as prepared in Example 1 were stored as a solid under the conditions (A) and (B) as defined in Example 8.

Row | total water uptake [1] | SMILES | Change In Mass (%) Desorption ([2]; Target RH 0.4 %) | Change In Mass (%) Sorption ([2]; Target RH 10.0 %) | Change In Mass (%) Desorption ([2]; Target RH 10.1 %) | Change In Mass (%) Desorption ([2]; Target RH 20.0 %) | Change In Mass (%) Sorption ([2]; Target RH 20.0 %) | Change In Mass (%) Sorption ([2]; Target RH 30.0 %) | Change In Mass (%) Desorption ([2]; Target RH 30.1 %) | Change In Mass (%) Sorption ([2]; Target RH 40.1 %) | Change In Mass (%) Sorption ([2]; Target RH 50.0 %) | Change In Mass (%) Sorption ([2]; Target RH 60.1 %) | Change In Mass (%) Sorption ([2]; Target RH 70.0 %) | Change In Mass (%) Sorption ([2]; Target RH 75.0 %) | Change In Mass (%) Sorption ([2]; Target RH 80.1 %) | Change In Mass (%) Sorption ([2]; Target RH 85.1 %) | Change In Mass (%) Sorption ([2]; Target RH 89.9 %) | Change In Mass (%) Sorption ([2]; Target RH 95.0 %) | Enantiomeric excess ([3]; Storage condition (A) 40 °C and 75 % RH 2 weeks, stored as a solid) | Enantiomeric excess ([3]; at the beginning)
1 | less than 0.15 % (w/w) | COc1ccc(/C=C\c2cc(OC)c(OC)c(OC)c2)cc1NC(=O)[C@@H](N)CO [crystal Form I, (2S)-2-amino-3-hydroxy-N-[2-methoxy-2-[(1Z)-2-(3,4,5-trimethoxyphenyl)ethenyl]phenyl] propanamide] |  |  |  |  |  |  |  |  |  |  |  |  |  |  |  |  |  | 
2 |  | Nc1ccc(C[C@@H](C(=O)O)c2cn(C3CCCCC3)cn2)cn1 [(R)-3-[6-amino-pyridin-3-yl]-2-(1-cyclohexyl-1 H-imidazol-4-yl)-propionic acid] | -1.6% | -0.5% | 0.3% | 1.1% | 0.5% | 1.9% | 1.7% | 3.9% | 6.6% | 9.6% | 13.4% | 15.0% | 16.9% | 20.1% | 25.1% | 32.3% | 94.9% | 98.2%
